Measured values taken from US20180280370A1, “DOSAGE REGIMEN FOR A PHOSPHATIDYLINOSITOL 3-KINASE INHIBITOR” (Novartis AG, priority 2015, published 2018).
Read-outs that look alike come from different tables or passages of the source.

Key:
[1] = Continuous blood glucose measurement via radio-telemetry in conscious freely moving rats; assay type: in vivo, Brown Norway rats; conditions: for normalization of blood glucose in between 2 doses: steady state
Description: Animals and maintenance conditions: Experiments were performed in female nude Rowett rats Hsd: RH-Fox1rnu or female Brown-Norway (BN) rats (Harlan (The Netherlands). Animals were 6-9 weeks of age at time of application of the compound. Animals were housed under Optimized Hygienic Conditions in Makrolon type III cages (max. 2 animals per cage) with free access to food and water. They were allowed to adapt for at least 6 days before the experiment was started.
Compound A was prepared for dosing as homogenous suspensions in 1% carboxymethyl cellulose: 0.5% Tween® 80: 98.5% deionized water. Fresh suspensions were prepared once every 7 days and stored at 4° C. Compound A or vehicle was administered orally at a volume of 10 mL/kg.
Blood Glucose Measurements Via Radio-Telemetry Technology (HD-XG Radio Telemetry Transmitter; Data Sciences International):
Blood glucose levels were measured continuously in conscious non-restrained freely moving rats by the method described in Brockway et al., Journal of Diabetes Science and Technology., 9(4):771-81 (2015), which is incorporated herein by reference in its entirety. Briefly, the 1.4 cc telemetry device provides direct continuous blood glucose readings along with temperature and activity for 4 weeks or longer. The device was used in non-tumor bearing Brown Norway (BN) rats. Each animal was surgically instrumented with glucose sensors in the abdominal aorta and the device placed in the intraperitoneal cavity. Continuous glucose readings were recorded with the Dataquest A.R.T. data acquisition system. Reference glucose values were measured from tail vein blood samples using the Nova StatStrip glucometer twice per week. Each animal was measured in cyclic runs of 1 minute for 10 seconds with a sampling rate of 1 Hz. Mean values for blood glucose levels, body temperature and motor activity were then computed and stored. Fifteen minutes or hourly averages were determined using the interval averaging routine on the Dataquest Analysis Software (Dataquest A.R.T, version 4.36; Data Sciences). Blood glucose values are expressed in mmol/L, body temperature in degree Celsius (° C.) and motor activity in number of movements (units) per minute.
(§1) Absolute values for primary tumor growth and body weight were used to make the statistical comparisons between groups (one way ANOVA followed by Dunnett's test for normally distributed data; ANOVA on Ranks for not normally distributed data followed by Dunnett's test for equal group size or Dunn's for unequal group size). Absolute values for blood glucose (calculated mean over 6 hours' time periods) and PK data were used to make the statistical comparisons between groups (two-tailed Student's t-tests). The significant level was set at p<0.05. All statistical calculations were carried out using SigmaStat.

[2] = Plasma PK after oral administration in freely moving catheterized rats with automated blood sampling; assay type: in vivo, Brown Norway rats; conditions: day 1 or 4 (steady state), 50 mg/kg p.o. qd; 2, 4, 6, 8, 10, 12, 18 and 24h post treatment
Description: Determination of Pharmacokinetic (PK) Parameters after Oral Administration of Compound A in Freely Moving Catheterized Rats Using Automated Blood Sampling (ABS) Technology:
The highly automated ABS system (Instech ABS2™) allows for unattended blood sample collection via an in-dwelling venous catheter placed in the jugular or femoral vein. For all animals, cannulas were filled with 1:1 heparin glycerol solution when not on study. The ABS freely-moving system is a well-recognized method to reduce stress during blood sampling and it only marginally impedes the animal in its freedom to move, drink, eat and sleep. Furthermore, this method allows obtaining pharmacokinetic parameters at night time (active phase of the animal).
as §1

[3] = tested on: Rat1-myr-p110α subcutaneous xenografts; experiment: Antitumor efficacy in Rat1-myr-p110α tumor bearing nude rats; assay type: in vivo; conditions: for body weight changes, 10 A.M. vs 5 p.m. dosing / tumor volume inhibition, 10 A.M. (ALTERNATIVE SCHEDULE 1) vs 5 p.m. dosing: 14 consecutive days
Description: Animals and maintenance conditions: Experiments were performed in female nude Rowett rats Hsd: RH-Fox1rnu or female Brown-Norway (BN) rats (Harlan (The Netherlands). Animals were 6-9 weeks of age at time of application of the compound. Animals were housed under Optimized Hygienic Conditions in Makrolon type III cages (max. 2 animals per cage) with free access to food and water. They were allowed to adapt for at least 6 days before the experiment was started. Cell line and cell culture: Rat1-Myr-p110α cells were grown in Dulbecco's Modified Eagle Medium (DMEM) culture medium containing 4.5 g/l glucose supplemented with 10% heat-inactivated fetal calf serum (FCS), 2 mM L-glutamine, 1 mM sodium pyruvate and incubated at 37° C. in a 5% CO2 humidified atmosphere. Cells were harvested with trypsin-EDTA, re-suspended in culture medium (with additives) and counted with a Casy® system. Finally, cells were centrifuged, suspended in ice-cold Hanks' balanced salt solution (HBSS) at a concentration of 3×10^7 cells/ml. Cell culture reagents were purchased from BioConcept (Allschwil, Switzerland). Rat1-myr-p110α cells were generated by the method described in Maira et al., Molecular Cancer Therapeutics, 11:317-328 (2012), which is incorporated herein by reference in its entirety. Briefly, Rat1 cells were transfected to stably express the constitutively active form of the catalytic PI3K class I p110 isoforms a by addition of a myristylation signal to the N-terminus. Rat1-Myr-p110α tumors were established by subcutaneous injection of […] in 100 μL HBSS (Sigma #H8264) into the right flank of nude rats. For the efficacy experiments, treatments were initiated when the mean tumor volumes were approx. 900-1200 mm^3 (21 to 23 days post tumor cells injection). Compound A was prepared for dosing as homogenous suspensions in 1% carboxymethyl cellulose: 0.5% Tween® 80: 98.5% deionized water. Fresh suspensions were prepared once every 7 days and stored at 4° C. Compound A or vehicle was administered orally at a volume of 10 mL/kg. Tumor volumes were measured with calipers and determined according to the formula: length×diameter^2×π/6. In addition to presenting changes of tumor volumes over the course of treatments, antitumor activity is expressed as T/C % (mean change of tumor volume of treated animals/mean change of tumor volume of control animals)×100. Regressions (%) were calculated according to the formula ((mean tumor volume at end of treatment−mean tumor volume at start of treatment)/mean tumor volume at start of treatment)×100. Body weights and tumor volumes were recorded two to three times a week. Absolute values for primary tumor growth and body weight were used to make the statistical comparisons between groups (one way ANOVA followed by Dunnett's test for normally distributed data; ANOVA on Ranks for not normally distributed data followed by Dunnett's test for equal group size or Dunn's for unequal group size). Absolute values for blood glucose (calculated mean over 6 hours' time periods) and PK data were used to make the statistical comparisons between groups (two-tailed Student's t-tests). The significant level was set at p<0.05. All statistical calculations were carried out using SigmaStat.

[4] = tested on: advanced solid malignancies carrying an alteration in the PIK3CA gene; conditions: cited from earlier work
advanced solid tumors = conditions: cited from earlier work
[5] = daily administration, human patients

Cc1nc(NC(=O)N2CCC[C@H]2C(N)=O)sc1-c1ccnc(C(C)(C)C(F)(F)F)c1 [Compound A, (S)-Pyrrolidine-1,2-dicarboxylic acid 2-amide 1-({4-methyl-5-[2-(2,2,2-trifluoro-1,1-dimethyl-ethyl)-pyridin-4-yl]-thiazol-2-yl}-amide)]
normalization of blood glucose in between 2 doses ([1]; 50 mg/kg p.o. qd, dosing before the active phase (5 p.m.)): could not be achieved
normalization of blood glucose in between 2 doses ([1]; 50 mg/kg p.o. qd, dosing before the inactive phase (10 a.m.)): allowed blood glucose to normalize in between 2 doses
change in glucose level ([1]; 50 mg/kg p.o. qd, steady state (Day 4), n=6): transient glucose level increase
effect on blood glucose levels ([1]; day 1 of treatment, 50 mg/kg p.o. qd dosed at 5 PM (active phase)): slight hyperglycemia
effect on blood glucose levels ([1]; day 1 of treatment, 50 mg/kg p.o. qd dosed at 10 AM (inactive phase)): slight hyperglycemia
period of remaining transient hyperglycemia after treatment discontinuation ([1]; recovery day 1, group dosed before the active phase (5 p.m.), 50 mg/kg p.o. qd): up to 12 h
blood glucose after treatment discontinuation ([1]; start of recovery day 1, group dosed before the inactive phase (10 a.m.), 50 mg/kg p.o. qd): already normalized to baseline levels
effect on blood glucose levels ([1]; steady state (Day 4-5 of daily treatment), 50 mg/kg p.o. qd): transient hyperglycemia profile
plasma PK profile, 10 AM vs 5 PM dosing [2]: did not revealed any significant differences
anti-tumor efficacy ([3]; 14 mg/kg p.o. qd, 2 weeks of treatment): stasis
body weight changes, 10 A.M. vs 5 p.m. dosing ([3]; 14 mg/kg p.o. qd): very similar pattern
tumor volume inhibition, 10 A.M. (ALTERNATIVE SCHEDULE 1) vs 5 p.m. dosing ([3]; 14 mg/kg p.o. qd): No significant differences
tumor regression ([3]; 25 mg/kg p.o. qd, 2 weeks of treatment): 50%
body weight changes, 10 A.M. vs 5 p.m. dosing ([3]; 25 mg/kg p.o. qd): very similar pattern
tumor volume inhibition, 10 A.M. (ALTERNATIVE SCHEDULE 1) vs 5 p.m. dosing ([3]; 25 mg/kg p.o. qd): No significant differences
Disease control rate (complete response, partial response or stable disease) ([4]; 150 mg/BID, 95% CI: 38.4-88.2): 66.7%
confirmed partial responses ([4]; 150 mg/BID): 2 patients
confirmed partial responses ([4]; 270 mg/QD): 2 patients
confirmed partial responses ([4]; 350 mg/QD): 1 patients
Disease control rate (complete response, partial response or stable disease) ([4]; 400 mg/QD, 95% CI: 40.1-66.0): 53.2%
confirmed partial responses ([4]; 400 mg/QD): 2 patients
MTD ([4]; QD, in patients): 400 mg
confirmed partial responses ([4]; all doses, of 132 evaluable patients): 7 patients
patients with induced hyperglycemia [4, 5]: 49%
partial responses to treatment ([4]; of 132 evaluable patients, as of Mar. 10, 2014, oral 30-450 mg q.d. or 120-200 mg b.i.d.): 15 patients

Nc1cc(C(F)(F)F)c(-c2cc(N3CCOCC3)nc(N3CCOCC3)n2)cn1 [Compound B, 4-(trifluoromethyl)-5-(2,6-dimorpholinopyrimidin-4-yl)pyridin-2-amine]
patients with induced hyperglycemia (advanced solid tumors; [5]): 31%
unconfirmed partial responses (advanced solid tumors; parotid gland carcinoma, epithelioid hemangiothelioma, ER+ breast cancer): three
confirmed partial response (advanced solid tumors; triple-negative breast cancer, 83 patients enrolled): One
